Molecules are shown by their SMILES.

Assay [1] has as its target Cyclin-dependent kinase 4 (Homo sapiens, UniProt P11802). Description: Kinase Assay: The CDK4 and CDK1 inhibitory activity of the CDK4/6-FLT3 inhibitors was determined with a filtration kinase assay. The compounds, kinase and substrate diluted in the kinase buffer (20 mM Tris, pH7.4, 50 mM NaCl, 1 mM DTT, 0.1% BSA) were sequentially added to a 96-well Multiscreen HTS filtration plate (Millipore). The final 100 μL reaction mixture in each well contained 0.3 μg of CDK4/Cyclin D1 or CDK1/Cyclin B (Cell Signaling Technology), 1 μg of Rb fragment (aa773-928, Millipore) for the CDK4 assay or 5 μg of histone H1 for the CDK1 assay and 1 μCi of [33P]-ATP. The mixture was incubated at room temperature for 1 hour. The proteins in the reaction were then precipitated and washed with cold TCA solution using an aspiration/filtration vacuum system. The plates were dried at room temperature, and the retained radioactivity was measured by scintillation counting.

For assay [2], the target named is T1, Receptor-type tyrosine-protein kinase FLT3 (Homo sapiens, UniProt P36888).
T1 sequence (P36888 whole entry): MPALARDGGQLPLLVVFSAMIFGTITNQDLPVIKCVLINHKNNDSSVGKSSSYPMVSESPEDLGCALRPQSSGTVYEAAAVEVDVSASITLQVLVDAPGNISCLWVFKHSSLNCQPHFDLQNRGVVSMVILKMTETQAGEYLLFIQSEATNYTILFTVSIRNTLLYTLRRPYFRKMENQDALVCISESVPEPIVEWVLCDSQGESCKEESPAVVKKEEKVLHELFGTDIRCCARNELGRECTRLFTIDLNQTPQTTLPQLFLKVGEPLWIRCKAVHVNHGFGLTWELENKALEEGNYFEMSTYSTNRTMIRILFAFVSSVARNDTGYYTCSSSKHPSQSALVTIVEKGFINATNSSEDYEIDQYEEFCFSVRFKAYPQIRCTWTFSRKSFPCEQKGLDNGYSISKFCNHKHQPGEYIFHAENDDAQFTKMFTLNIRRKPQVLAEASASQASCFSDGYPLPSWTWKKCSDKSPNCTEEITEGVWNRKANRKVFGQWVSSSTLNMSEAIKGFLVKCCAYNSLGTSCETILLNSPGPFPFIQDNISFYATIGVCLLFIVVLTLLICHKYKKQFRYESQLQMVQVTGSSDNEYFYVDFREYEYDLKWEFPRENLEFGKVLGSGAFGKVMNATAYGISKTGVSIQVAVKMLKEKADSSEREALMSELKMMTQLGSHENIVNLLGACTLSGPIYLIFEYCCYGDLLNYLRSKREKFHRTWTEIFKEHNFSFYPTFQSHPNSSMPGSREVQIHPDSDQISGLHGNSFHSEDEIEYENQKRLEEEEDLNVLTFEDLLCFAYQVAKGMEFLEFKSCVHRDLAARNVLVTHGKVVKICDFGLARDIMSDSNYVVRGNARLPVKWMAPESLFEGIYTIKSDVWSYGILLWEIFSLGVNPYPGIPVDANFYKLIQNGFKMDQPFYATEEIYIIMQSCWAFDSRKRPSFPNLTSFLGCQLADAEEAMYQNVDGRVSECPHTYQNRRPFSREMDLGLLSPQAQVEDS
Description: Kinase Assay: The FLT3 inhibitory activity of the CDK4/6-FLT3 inhibitors was determined with a HTRF kinase assay. The FLT3 enzyme (GST-FLT3 fusion) was purchased from Carna Biosciences. An ULight-labeled synthetic peptide derived from human Janus kinase 1 (aa1015-1027, ULight-JAK1, PerkinElmer) was utilized as the phosphoacceptor substrate. The assay was conducted in a 384-well white OptiPlate (PerkinElmer). The 20 μL reaction mixture contained 50 nM ULight-JAK1, 116 μM ATP, 0.0385 ng/μL FLT3 and dilutions of test compounds in the kinase buffer (50 mM Hepes, pH 7.6, 1 mM EGTA, 10 mM MgCl2, 2 mM DTT, and 0.005% Tween 20). The reaction was allowed to proceed for 1 hour at room temperature and was stopped by adding 20 μL of 10 mM EDTA, 2 nM LANCE Eu-W1024 anti-phospho-tyrosine antibody in LANCE detection buffer (PerkinElmer). The plates were incubated at room temperature for 2 hours after addition of detection reagents and then read on an Envision multimode reader (PerkinElmer).

Cyclin-dependent kinase 4, sequence (P11802 whole entry, the tested form may be a part): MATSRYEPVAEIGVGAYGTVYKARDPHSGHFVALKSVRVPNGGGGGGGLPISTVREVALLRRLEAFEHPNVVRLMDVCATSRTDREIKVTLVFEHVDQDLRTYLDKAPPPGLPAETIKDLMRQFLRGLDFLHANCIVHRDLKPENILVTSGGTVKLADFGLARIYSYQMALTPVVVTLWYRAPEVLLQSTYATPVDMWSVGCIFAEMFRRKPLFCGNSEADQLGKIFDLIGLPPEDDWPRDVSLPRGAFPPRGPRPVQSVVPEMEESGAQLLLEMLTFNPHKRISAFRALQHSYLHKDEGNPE

`C[C@H]1CC[C@H](n2c3cnccc3c3cnc(Nc4ccc5c(n4)C(O)CN(CCO)C5)nc32)CC1` (some centres not stated): the IC50 in assay [1] came to 19.2 nM; in assay [2], 2.9 nM.

(Values after ChEMBL document CHEMBL3639325, “Fused tricyclic dual inhibitors of CDK 4/6 and FLT3” (2014).)
